According to patent US12589143B2, “Human anti-PD-L1 peptide vaccines and methods of their use” (priority 2019, dated 2026):
Values joined by “and” are separate entries in the source; they are usually repeats but may differ in a detail not shown here. Equal entries are not always repeated. Where no end group is shown, it is not given here.

Test system: MVF-PD-L1 peptide immunogen
Assay: Immunogenicity in Balb/c mice, experiment 1 (CT26 WT): ELISA of sera vs each MVF-PD-L1 peptide immunogen
Format: in vivo
Details: for Immunogenicity (titers) 1′ Conc. 1:: Balb/c mice
Description: Immunogenicity of MVF-PD-L1 B-cell epitopes. New Zealand White rabbits were immunized with 1 mg of each MVF-peptide immunogens dissolved in dd H2O emulsified (1:1) in Montanide ISA 720 vehicle (Seppic) with 333 μg of N-acetylglucosamine-3yl-acetyl-1-alanyl-d-isoglutamine (nor-MDP). Rabbits were boosted with the same doses at 3-week's intervals. Blood was collected via the central auricular artery in rabbits. Blood was collected weekly (1Y+3, 2Y+1, 2Y+2,2Y+3, 3Y+1, 3Y+2 and sera tested for antibody titers by ELISA using the immunogens MVF-PD-L1 peptides. Sera (terminal) from rabbit (3Y+3) immunized with MVF-PD-1 peptide immunogens were tested individually versus the immunogen by ELISA. 200 ng/well peptide were used in duplicates to coat the ELISA plates. Titers are defined as the highest dilution of sera with an absorbance value of 0.2 after subtracting the blank.
FIGS. 5A, 5B, 5C, and 5D show the experimental scheme to test the immunization with PD-L1 in Balb/c mice. […] Balb/c mice 6-8 weeks old, were immunized with MVF-peptide immunogens emulsified in ISA 720 with nor-MDP three times and three weeks apart. Mice were immunized with MVF-PD-L1 vaccine constructs [PD-L1(36-53), PD-L1(50-67), PD-L1(95-112), PD-L1(130-147)] prior to tumor challenge. Blood was collected weekly and sera tested for antibody titers by ELISA. Two weeks after the third immunization (3Y), the mice were engrafted with CT26 WT tumor cells 10^5 per mouse Control mice were treated twice weekly with PBS as negative control and twice weekly with anti-mPD-L1 mAb (10F.9G2) as positive control starting 2 days after tumor challenge. Tumor growths were observed twice weekly and measured by calipers.
Immunogenicity of MVF-PD-L1 peptides in BALB/c mice immunized with various peptide constructs. Sera collected weekly were tittered against each individual MVF-PD-L1 peptide immunogen. The Pink bar refers to titers versus PD-L1 130 and the red bar refers to titers versus PD-1 (92-110).
In order to verify the efficacy of the PD-L1 epitope vaccines in vivo in the CT26 carcinoma cell line, Balb/c mice (10 mice/group) were immunized with 100 μg each of MVF-PD-L1 (36-53), MVF-PD-L1 (50-67), MVF-PD-L1 (95-112) and MVF-PD-L1 (130-147) emulsified with nor-MDP and Montanide 720 (1:1 ratio) SCHEME 1A (FIG. 5A). As detailed in SCHEME 1A-D (FIGS. 5A, 5B, 5C, and 5D), mice were immunized 3 times at 3 weeks intervals. […] All PD-L1 epitopes elicited high titers of PD-L1 anti-peptide antibodies by ELISA. […] We also investigated the combination of PD-1(92-110) with PD-L1-130-147.
For each peptide, vaccine antibodies were raised in New Zealand white rabbits, purchased from Charles River Laboratories (Wilmington, MA, USA). Rabbits were immunized with 1 mg of MVF chimeric peptide emulsified in Montanide ISA 720 (Seppic, Paris, France) and boosted 3 times at three week intervals. For mouse experiments, mice, 6-8 weeks old, were immunized with 0.1 mg of peptide emulsified in ISA720 (1:1 ratio). Mice were boosted with the respective doses at 3-week intervals. Blood was then collected and sera were tested for antibody titers. Sera were collected weekly and peptide vaccine antibodies were purified by affinity chromatography using a protein A/G column and the concentration was measured using Spectrophometer. All experiments were performed in accordance with the U.S. Public Health Service Policy on Humane Care and Use of Laboratory animals and approved by the Ohio State University Institutional Animals Care and Use Committee, detailed in the accepted protocol.
6-8 weeks old BALB/c mice (Charles River, Wilmington, MA) were used as standard animal models. Mouse CT26 colon carcinoma cell line was purchased from American Type Culture Collection Cells and were regularly cultured in RPMI1640 medium containing 10% FBS. CT26/HER2 cells were kindly provided by M. Penichet. Vaccines were dissolved in sterile water and emulsified in Montanide ISA 720 (1:1). […]

## KLLSLIKGVIVHRLEGVEGPSLLIVYWEMEDKNIIQFVHG (KLLSLIKGVIVHRLEGVEGPSLLIVYWEMEDKNIIQFVHG-NH2) [PD-L1(36)]
Bleed 1Y + 3
  Immunogenicity (titers) 1′ Conc. 1:: 400
Bleed 2Y + 1
  Immunogenicity (titers) 1′ Conc. 1:: 1600
Bleed 2Y + 2
  Immunogenicity (titers) 1′ Conc. 1:: 6400
Bleed 2Y + 3
  Immunogenicity (titers) 1′ Conc. 1:: 16000
Bleed 3Y + 1
  Immunogenicity (titers) 1′ Conc. 1:: 16000
Bleed 3Y + 2
  Immunogenicity (titers) 1′ Conc. 1:: 16000
Bleed 3Y + 3
  Immunogenicity (titers) 1′ Conc. 1:: 16000
Bleed 1Y + 3 (1to100), dilution 100
  ELISA absorbance of sera: 0.598 and 0.583
Bleed 1Y + 3 (1to100), dilution 200
  ELISA absorbance of sera: 0.352 and 0.300
Bleed 1Y + 3 (1to100), dilution 400
  ELISA absorbance of sera: 0.212 and 0.200
Bleed 1Y + 3 (1to100), dilution 800
  ELISA absorbance of sera: 0.117 and 0.088
Bleed 1Y + 3 (1to100), dilution 1,600
  ELISA absorbance of sera: 0.063 and 0.046
Bleed 1Y + 3 (1to100), dilution 3,200
  ELISA absorbance of sera: 0.032 and 0.027
Bleed 1Y + 3 (1to100), dilution 6,400
  ELISA absorbance of sera: 0.014 and 0.010
Bleed 1Y + 3 (1to100), dilution 12,800
  ELISA absorbance of sera: 0.010 and 0.006
Bleed 2Y + 1 (1to100), dilution 100
  ELISA absorbance of sera: 1.031 and 0.901
Bleed 2Y + 1 (1to100), dilution 200
  ELISA absorbance of sera: 0.815 and 0.784
Bleed 2Y + 1 (1to100), dilution 400
  ELISA absorbance of sera: 0.601 and 0.591
Bleed 2Y + 1 (1to100), dilution 800
  ELISA absorbance of sera: 0.408 and 0.394
Bleed 2Y + 1 (1to100), dilution 1,600
  ELISA absorbance of sera: 0.273 and 0.203
Bleed 2Y + 1 (1to100), dilution 3,200
  ELISA absorbance of sera: 0.163 and 0.116
Bleed 2Y + 1 (1to100), dilution 6,400
  ELISA absorbance of sera: 0.090 and 0.067
Bleed 2Y + 1 (1to100), dilution 12,800
  ELISA absorbance of sera: 0.049 and 0.031
Bleed 2Y + 2 (1to100), dilution 100
  ELISA absorbance of sera: 1.281 and 1.251
Bleed 2Y + 2 (1to100), dilution 200
  ELISA absorbance of sera: 1.162 and 1.137
Bleed 2Y + 2 (1to100), dilution 400
  ELISA absorbance of sera: 1.033 and 1.019
Bleed 2Y + 2 (1to100), dilution 800
  ELISA absorbance of sera: 0.975 and 0.820
Bleed 2Y + 2 (1to100), dilution 1,600
  ELISA absorbance of sera: 0.691 and 0.602
Bleed 2Y + 2 (1to100), dilution 3,200
  ELISA absorbance of sera: 0.460 and 0.389
Bleed 2Y + 2 (1to100), dilution 6,400
  ELISA absorbance of sera: 0.299 and 0.248
Bleed 2Y + 3 (1to1k), dilution 100
  ELISA absorbance of sera: 0.855 and 0.817
Bleed 2Y + 3 (1to1k), dilution 200
  ELISA absorbance of sera: 0.695 and 0.612
Bleed 2Y + 3 (1to1k), dilution 400
  ELISA absorbance of sera: 0.530 and 0.500
Bleed 2Y + 3 (1to1k), dilution 800
  ELISA absorbance of sera: 0.393 and 0.359
Bleed 2Y + 3 (1to1k), dilution 1,600
  ELISA absorbance of sera: 0.273 and 0.257
Bleed 2Y + 3 (1to1k), dilution 3,200
  ELISA absorbance of sera: 0.155 and 0.146
Bleed 2Y + 3 (1to1k), dilution 6,400
  ELISA absorbance of sera: 0.074 and 0.049
Bleed 3Y + 1 (1to1k), dilution 100
  ELISA absorbance of sera: 0.966 and 0.923
Bleed 3Y + 1 (1to1k), dilution 200
  ELISA absorbance of sera: 0.785 and 0.691
Bleed 3Y + 1 (1to1k), dilution 400
  ELISA absorbance of sera: 0.599 and 0.565
Bleed 3Y + 1 (1to1k), dilution 800
  ELISA absorbance of sera: 0.444 and 0.406
Bleed 3Y + 1 (1to1k), dilution 1,600
  ELISA absorbance of sera: 0.308 and 0.291
Bleed 3Y + 1 (1to1k), dilution 3,200
  ELISA absorbance of sera: 0.175 and 0.165
Bleed 3Y + 1 (1to1k), dilution 6,400
  ELISA absorbance of sera: 0.084 and 0.056
Bleed 3Y + 2 (1to1k), dilution 100
  ELISA absorbance of sera: 1.202 and 1.225
Bleed 3Y + 2 (1to1k), dilution 200
  ELISA absorbance of sera: 0.934 and 0.949
Bleed 3Y + 2 (1to1k), dilution 400
  ELISA absorbance of sera: 0.658 and 0.662
Bleed 3Y + 2 (1to1k), dilution 800
  ELISA absorbance of sera: 0.405 and 0.424
Bleed 3Y + 2 (1to1k), dilution 1,600
  ELISA absorbance of sera: 0.240 and 0.228
Bleed 3Y + 2 (1to1k), dilution 3,200
  ELISA absorbance of sera: 0.151 and 0.130
Bleed 3Y + 2 (1to1k), dilution 6,400
  ELISA absorbance of sera: 0.077
Bleed 3Y + 3 (1to1k), dilution 100
  ELISA absorbance of sera: 1.269 and 1.387
Bleed 3Y + 3 (1to1k), dilution 200
  ELISA absorbance of sera: 0.919 and 1.048
Bleed 3Y + 3 (1to1k), dilution 400
  ELISA absorbance of sera: 0.666 and 0.772
Bleed 3Y + 3 (1to1k), dilution 800
  ELISA absorbance of sera: 0.418 and 0.430
Bleed 3Y + 3 (1to1k), dilution 1,600
  ELISA absorbance of sera: 0.246 and 0.257
Bleed 3Y + 3 (1to1k), dilution 3,200
  ELISA absorbance of sera: 0.081 and 0.119
Bleed 3Y + 3 (1to1k), dilution 6,400
  ELISA absorbance of sera: 0.025
